Measured values: patent US20260193293A1, “PEPTIDES CAPABLE OF INHIBITING PROTEIN-PROTEIN INTERACTIONS AT GABAB1A SUBUNIT AND USES THEREOF” (UNIVERSITY OF COPENHAGEN, priority 2022, published 2026)
Like-named read-outs stand apart in the source and are kept apart here. Blank lines part the entries; values can stand above or below the compound they belong to. Non-standard residues stand in square brackets, D forms with d. Residues, ends and D or L forms follow the SMILES beside them. NMeW = CN[C@@H](Cc1c[nH]c2ccccc12)C(=O)O; 1Nal = N[C@@H](Cc1cccc2ccccc12)C(=O)O; NMeT = CN[C@H](C(=O)O)[C@@H](C)O; NMeE = CN[C@@H](CCC(=O)O)C(=O)O

Target: Sushi domains (SD1/2) protein
Assay: Fluorescence polarization (FP) competition assay with AJAP-1probe, calculated Ki
Type: binding
Settings: read-out: Ki (nM) mean ± SEM
Procedure, shortened: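 Competition against 25 nM TAMRA-labelled peptide probe binding SD1/2, in PBS pH 7.4 with 1% BSA at rt, read at 530/580 nm. IC50 from sigmoidal dose-response fits, at least triplicate; Ki calculated from IC50 using probe Kd from saturation binding.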

[1] = Table 3, SPOT hit validation and previously reported peptides
[2] = Table 5, elongation and truncation scan of AJAP-1 binding epitope
[3] = Table 6, elongation and truncation scan of PIANP binding epitope
[4] = Table 4, truncation and elongation scans of APP epitope
[5] = Table 7, Ala-, D-amino acids and N-methylation scans of APPWT
[6] = Table 8, Ala-, D-amino acids and N-methylation scans of AJAP-1WT

SMILES: CC[C@H](C)[C@H](NC(=O)[C@H](Cc1ccccc1)NC(=O)[C@H](CCC(=O)O)NC(=O)[C@@H](NC(=O)[C@H](CCC(=O)O)NC(=O)[C@@H](NC(=O)[C@@H](NC(C)=O)[C@@H](C)O)[C@@H](C)O)[C@@H](C)O)C(=O)N[C@@H](C)C(=O)N[C@@H](Cc1c[nH]c2ccccc12)C(=O)NCC(=O)N1CCC[C@H]1C(=O)N[C@H](C(=O)NCC(=O)N[C@@H](CC(=O)O)C(=O)N[C@@H](CCC(=O)O)C(N)=O)[C@@H](C)O (Ac-TTETEFIAWGPTGDE-NH2)
Ki [1]: 73 ± 1 nM

SMILES: CC(=O)N[C@H](C(=O)N[C@@H](Cc1c[nH]c2ccccc12)C(=O)NCC(=O)N1CCC[C@H]1C(=O)N[C@H](C(=O)N[C@H](C(=O)N[C@@H](CO)C(=O)N[C@@H](CCCNC(=N)N)C(=O)N[C@@H](CCC(=O)O)C(=O)N[C@@H](CC(=O)O)C(=O)NCC(N)=O)C(C)C)[C@@H](C)O)C(C)C (Ac-VWGPTVSREDG-NH2)
Ki [3]: 1740 ± 62 nM

SMILES: CC[C@H](C)[C@H](NC(=O)[C@H](C)NC(=O)[C@H](Cc1c[nH]c2ccccc12)NC(C)=O)C(=O)N[C@H](C(=O)N[C@@H](Cc1c[nH]c2ccccc12)C(=O)NCC(=O)N1CCC[C@H]1C(=O)N[C@H](C(=O)N[C@H](C(=O)N[C@@H](CO)C(=O)N[C@@H](CCCNC(=N)N)C(=O)N[C@@H](CCC(=O)O)C(=O)N[C@@H](CC(=O)O)C(=O)NCC(N)=O)C(C)C)[C@@H](C)O)C(C)C (Ac-WAIVWGPTVSREDG-NH2)
Ki [3]: > 62500 nM

SMILES: CC[C@H](C)[C@H](NC(=O)[C@H](C)NC(=O)[C@H](Cc1c[nH]c2ccccc12)NC(C)=O)C(=O)N[C@H](C(=O)N[C@@H](Cc1c[nH]c2ccccc12)C(=O)NCC(=O)N1CCC[C@H]1C(=O)N[C@H](C(=O)N[C@H](C(=O)N[C@@H](CO)C(=O)N[C@@H](CCCNC(=N)N)C(=O)N[C@@H](CCC(=O)O)C(=O)N[C@@H](CC(=O)O)C(=O)NCC(=O)NCC(N)=O)C(C)C)[C@@H](C)O)C(C)C (Ac-WAIVWGPTVSREDGG-NH2)
Ki [1]: 1350 ± 49 nM

SMILES: CC(=O)N[C@@H](Cc1c[nH]c2ccccc12)C(=O)NCC(=O)NCC(=O)N[C@@H](C)C(=O)N[C@@H](CC(=O)O)C(=O)N[C@H](C(=O)N[C@@H](CC(=O)O)C(=O)N[C@@H](Cc1ccc(O)cc1)C(=O)N[C@@H](C)C(=O)N[C@@H](CC(=O)O)C(N)=O)[C@@H](C)O (Ac-WGGADTDYAD-NH2)
Ki [4]: > 62500 nM

SMILES: CC(=O)N[C@@H](Cc1c[nH]c2ccccc12)C(=O)N[C@@H](Cc1c[nH]c2ccccc12)C(=O)NCC(=O)NCC(=O)N[C@@H](C)C(=O)N[C@@H](CC(=O)O)C(=O)N[C@H](C(=O)N[C@@H](CC(=O)O)C(=O)N[C@@H](Cc1ccc(O)cc1)C(=O)N[C@@H](C)C(=O)N[C@@H](CC(=O)O)C(N)=O)[C@@H](C)O (Ac-WWGGADTDYAD-NH2)
Ki [4]: > 62500 nM

SMILES: CC[C@H](C)[C@H](NC(=O)[C@H](C)NC(=O)[C@H](Cc1c[nH]c2ccccc12)NC(=O)[C@@H]1CCCN1C(=O)[C@H](Cc1ccc(O)cc1)NC(C)=O)C(=O)N[C@H](C(=O)N[C@@H](Cc1c[nH]c2ccccc12)C(=O)NCC(=O)N1CCC[C@H]1C(=O)N[C@H](C(=O)N[C@H](C(=O)N[C@@H](CO)C(=O)N[C@@H](CCCNC(=N)N)C(=O)N[C@@H](CCC(=O)O)C(=O)N[C@@H](CC(=O)O)C(=O)NCC(N)=O)C(C)C)[C@@H](C)O)C(C)C (Ac-YPWAIVWGPTVSREDG-NH2)
Ki [3]: 433 ± 2 nM

SMILES: CC[C@H](C)[C@H](NC(=O)[C@H](Cc1ccccc1)NC(=O)[C@H](CCC(=O)O)NC(=O)[C@@H](NC(=O)[C@H](CCC(=O)O)N(C)C(C)=O)[C@@H](C)O)C(=O)N[C@@H](C)C(=O)N[C@@H](Cc1c[nH]c2ccccc12)C(=O)NCC(=O)N1CCC[C@H]1C(=O)N[C@H](C(=O)NCC(=O)N[C@@H](CC(=O)O)C(=O)N[C@@H](CCC(=O)O)C(=O)N[C@@H](CC(=O)O)C(N)=O)[C@@H](C)O [(N-Me-E)TEFIAWGPTGDED] (Ac-[NMeE]TEFIAWGPTGDED-NH2)
Ki [6]: 35 ± 1 nM

SMILES: CC[C@H](C)[C@H](NC(=O)[C@H](C)NC(=O)[C@H](Cc1c[nH]c2ccccc12)NC(=O)[C@H](C)NC(C)=O)C(=O)N[C@H](C(=O)N[C@@H](Cc1c[nH]c2ccccc12)C(=O)NCC(=O)N1CCC[C@H]1C(=O)N[C@H](C(=O)N[C@H](C(=O)N[C@@H](CO)C(=O)N[C@@H](CCCNC(=N)N)C(=O)N[C@@H](CCC(=O)O)C(=O)N[C@@H](CC(=O)O)C(N)=O)C(C)C)[C@@H](C)O)C(C)C [AWAIVWGPTVSRED] (Ac-AWAIVWGPTVSRED-NH2)
Ki (Table 9, Ala-, D-amino acids and N-methylation scans of PIANPWT): 552 ± 20 nM

SMILES: CC(=O)N[C@@H](C)C(=O)N[C@@H](Cc1c[nH]c2ccccc12)C(=O)NCC(=O)N1CCC[C@H]1C(=O)N[C@H](C(=O)NCC(=O)N[C@@H](CC(=O)O)C(=O)N[C@@H](CCC(=O)O)C(=O)N[C@@H](CC(=O)O)C(N)=O)[C@@H](C)O [AWGPTGDED] (Ac-AWGPTGDED-NH2)
Ki [2]: > 125000 nM

SMILES: CC[C@H](C)[C@H](NC(=O)[C@H](C)NC(=O)[C@H](Cc1c[nH]c2ccccc12)NC(=O)[C@H](CC(=O)O)NC(C)=O)C(=O)N[C@H](C(=O)N[C@@H](Cc1c[nH]c2ccccc12)C(=O)NCC(=O)N1CCC[C@H]1C(=O)N[C@H](C(=O)N[C@H](C(=O)N[C@@H](CO)C(=O)N[C@@H](CCCNC(=N)N)C(=O)N[C@@H](CCC(=O)O)C(=O)N[C@@H](CC(=O)O)C(N)=O)C(C)C)[C@@H](C)O)C(C)C [DWAIVWGPTVSRED] (Ac-DWAIVWGPTVSRED-NH2)
Ki (Table 12, deep mutational scanning validation variants of PIANPWT): 338 ± 1 nM

More lines, now with the values ahead:

Ki [2]: 32 ± 1.4 nM
SMILES: CC[C@H](C)[C@H](NC(=O)[C@H](Cc1ccccc1)NC(=O)[C@H](CCC(=O)O)NC(=O)[C@@H](NC(=O)[C@H](CCC(=O)O)NC(=O)[C@@H](NC(=O)[C@@H](NC(C)=O)[C@@H](C)O)[C@@H](C)O)[C@@H](C)O)C(=O)N[C@@H](C)C(=O)N[C@@H](Cc1c[nH]c2ccccc12)C(=O)NCC(=O)N1CCC[C@H]1C(=O)N[C@H](C(=O)NCC(=O)N[C@@H](CC(=O)O)C(=O)N[C@@H](CCC(=O)O)C(=O)N[C@@H](CC(=O)O)C(N)=O)[C@@H](C)O (Ac-TTETEFIAWGPTGDED-NH2)

Ki [4]: 60800 ± 5220 nM
SMILES: CC(=O)N[C@H](C(=O)N[C@@H](Cc1c[nH]c2ccccc12)C(=O)N[C@@H](Cc1c[nH]c2ccccc12)C(=O)NCC(=O)NCC(=O)N[C@@H](C)C(=O)N[C@@H](CC(=O)O)C(=O)N[C@H](C(=O)N[C@@H](CC(=O)O)C(=O)N[C@@H](Cc1ccc(O)cc1)C(=O)N[C@@H](C)C(=O)N[C@@H](CC(=O)O)C(N)=O)[C@@H](C)O)C(C)C (Ac-VWWGGADTDYAD-NH2)

Ki [5]: 670 ± 6 nM
SMILES: CC(=O)N(C)[C@@H](CCC(=O)O)C(=O)N[C@@H](CC(=O)O)C(=O)N[C@@H](CC(=O)O)C(=O)N[C@@H](CO)C(=O)N[C@@H](CC(=O)O)C(=O)N[C@H](C(=O)N[C@@H](Cc1c[nH]c2ccccc12)C(=O)N[C@@H](Cc1c[nH]c2ccccc12)C(=O)NCC(=O)NCC(=O)N[C@@H](C)C(=O)N[C@@H](CC(=O)O)C(=O)N[C@H](C(=O)N[C@@H](CC(=O)O)C(N)=O)[C@@H](C)O)C(C)C (Ac-[NMeE]DDSDVWWGGADTD-NH2)

Ki [6]: 53 ± 2 nM
SMILES: CC[C@H](C)[C@H](NC(=O)[C@H](Cc1ccccc1)NC(=O)[C@H](CCC(=O)O)NC(=O)[C@@H](NC(=O)[C@H](C)NC(C)=O)[C@@H](C)O)C(=O)N[C@@H](C)C(=O)N[C@@H](Cc1c[nH]c2ccccc12)C(=O)NCC(=O)N1CCC[C@H]1C(=O)N[C@H](C(=O)NCC(=O)N[C@@H](CC(=O)O)C(=O)N[C@@H](CCC(=O)O)C(=O)N[C@@H](CC(=O)O)C(N)=O)[C@@H](C)O [ATEFIAWGPTGDED] (Ac-ATEFIAWGPTGDED-NH2)

Ki [6]: 37 ± 2 nM
SMILES: CC[C@H](C)[C@H](NC(=O)[C@H](Cc1ccccc1)NC(=O)[C@H](CCC(=O)O)NC(=O)[C@H]([C@@H](C)O)N(C)C(=O)[C@H](CCC(=O)O)NC(C)=O)C(=O)N[C@@H](C)C(=O)N[C@@H](Cc1c[nH]c2ccccc12)C(=O)NCC(=O)N1CCC[C@H]1C(=O)N[C@H](C(=O)NCC(=O)N[C@@H](CC(=O)O)C(=O)N[C@@H](CCC(=O)O)C(=O)N[C@@H](CC(=O)O)C(N)=O)[C@@H](C)O [E(N-Me-T)EFIAWGPTGDED] (Ac-E[NMeT]EFIAWGPTGDED-NH2)

Ki [6]: 34 ± 3 nM
SMILES: CC[C@H](C)[C@H](NC(=O)[C@H](Cc1ccccc1)NC(=O)[C@H](CCC(=O)O)NC(=O)[C@H](C)NC(=O)[C@H](CCC(=O)O)NC(C)=O)C(=O)N[C@@H](C)C(=O)N[C@@H](Cc1c[nH]c2ccccc12)C(=O)NCC(=O)N1CCC[C@H]1C(=O)N[C@H](C(=O)NCC(=O)N[C@@H](CC(=O)O)C(=O)N[C@@H](CCC(=O)O)C(=O)N[C@@H](CC(=O)O)C(N)=O)[C@@H](C)O [EAEFIAWGPTGDED] (Ac-EAEFIAWGPTGDED-NH2)

Ki [5]: 85600 ± 10100 nM
SMILES: CC(=O)N[C@@H](CCC(=O)O)C(=O)N[C@@H](CC(=O)O)C(=O)N[C@@H](CC(=O)O)C(=O)N[C@@H](CO)C(=O)N[C@@H](CC(=O)O)C(=O)N[C@H](C(=O)N(C)[C@@H](Cc1c[nH]c2ccccc12)C(=O)N[C@@H](Cc1c[nH]c2ccccc12)C(=O)NCC(=O)NCC(=O)N[C@@H](C)C(=O)N[C@@H](CC(=O)O)C(=O)N[C@H](C(=O)N[C@@H](CC(=O)O)C(N)=O)[C@@H](C)O)C(C)C [EDDSDV(N-Me-W)WGGADTD] (Ac-EDDSDV[NMeW]WGGADTD-NH2)

Ki (Table 16, ncAAs incorporated peptides): 499 ± 17 nM
SMILES: CC(=O)N[C@@H](CCC(=O)O)C(=O)N[C@@H](CC(=O)O)C(=O)N[C@@H](CC(=O)O)C(=O)N[C@@H](CO)C(=O)N[C@@H](CC(=O)O)C(=O)N[C@H](C(=O)N[C@@H](Cc1c[nH]c2ccccc12)C(=O)N[C@@H](Cc1cccc2ccccc12)C(=O)NCC(=O)NCC(=O)N[C@@H](C)C(=O)N[C@@H](CC(=O)O)C(=O)N[C@H](C(=O)N[C@@H](CC(=O)O)C(N)=O)[C@@H](C)O)C(C)C [EDDSDVW(1Nala)GGADTD] (Ac-EDDSDVW[1Nal]GGADTD-NH2)
